Experimental findings from patent publication US20070258972A1, “Combination of a Histone Deacetylase Inhibitor with a Death Receptor Ligand” (priority 2003, published 2007) are described below.

Holding throughout (assay type): cell-based, human
For one assay, the system named is Jurkat and SKW 6.4 cells. The assay can be described thus: Apoptosis assessment by annexin-V staining, Jurkat and SKW 6.4 cells. The settings on record: 10-200 nM, 24 hours; more in Jurkat than in SKW 6.4 cells. The method, then: (§1) After drug treatments, cells are resuspended in 100 μL of the staining solution containing annexin-V fluorescein and propidium iodide in a HEPES buffer (Annexin-V-FLUOS Staining Kit, Boehringer-Mannheim, and Indianapolis, Ind.). Following incubation at room temperature for 15 minutes, annexin V positive cells are estimated by flow cytometry, as previously described.

The test system of another assay is DR5. Briefly: DR5 expression on the cell membrane by flow cytometry, primary AML sample.
A further assay concerns Primary AML cells. Briefly: Apoptosis of primary AML cells by annexin V staining and flow cytometry. The following applies: for % of Apoptosis: LAQ824 100 nM and/or Apo-2L/TRAIL 100 ng/mL, 24 hours.
Excerpt: Jurkat T cell leukemia and SKW6.4 B lymphoblast cells are obtained from American Tissue Culture Collection (Manassas, Va.). HL-60/Bcl-2 cells with ectopic over-expression of Bcl-2 and the control HL-60/Neo cells are created and maintained in culture as previously described. Primary leukemia blasts from six patients with AML in relapse are harvested, as previously described, from the peripheral blood or bone marrow after informed consent, as a part of a protocol study sanctioned by the local Institutional Review Board. The purity of leukemia blasts in the samples prior to culture in LAQ824 and/or Apo-2L/TRAIL was at least 80% or more, as determined by morphologic evaluation after Wright staining.
as §1

Assay [1] has as its system DR5 promoter associated with acetylated histones H3 and H4. Briefly: ChIP assay, DR5 promoter. The following applies: 8 hours, Jurkat cells. The method, then: ChIP analysis was performed by a slight modification of a previously described method. Cells are incubated overnight at a density of 0.25×10^8 cells/ ml at 37° C. with 5% CO2. […] Formaldehyde was then added to the cells to a final concentration of 1%, and the cells are gently shaken at room temperature for 10 minutes. Following this, the cells are pelleted, suspended in 1 mL of ice-cold PBS containing protease inhibitors (Complete, Boehringer Mannheim). Cells are again pelleted, re-suspended in 0.5 mL of SDS lysis buffer (1% SDS/1.0 mM EDTA/50 mM Tris.HCl, pH 8.1) and incubated on ice for 20 minutes. Lysates are sonicated with 15-second bursts. Debris was removed from samples by centrifugation for 20 minutes at 15,000×g at 4° C. An aliquot of the chromatin preparation (100 μL) was set aside and designated as Input Fraction. […] Immunoprecipitated DNA (both immunoprecipitation samples and Input) was recovered by phenol/chloroform extraction and ethanol precipitation and analyzed by PCR. […] The optimal reaction conditions for PCR are determined for each primer pair. […] The ratio between the immunoprecipitated DNA and Input DNA was calculated for each treatment and primer set. The fold increases after treatment with LAQ824 was calculated from the indicated ratio.

SMILES strings stand for the structures.

For `O=C(/C=C/c1ccc(CN(CCO)CCc2c[nH]c3ccccc23)cc1)NO` [LAQ824, N-hydroxy-3-[4-[[(2-hydroxyethyl)[2-(1H-indol-3-yl)ethyl]-amino]methyl]phenyl]-2E-2-propenamide], the “apoptosis, positive staining for annexin V” value in the assay on Jurkat and SKW 6.4 cells is on record as “induces apoptosis in a dose-dependent manner”. Moreover, the “DR5 expression on the cell membrane” value in the assay on DR5 (100 nM LAQ824, baseline 17.5%) is listed as 33.2 % of cells; in the assay with DR5 (250 nM LAQ824, baseline 17.5%), 62.4 % of cells. For the same molecule, the “% of Apoptosis” value is on record as 14.5% in the assay with Primary AML cells (Patient 1 primary AML cells, control 7.0); 29.5% with Primary AML cells (Patient 2 primary AML cells, control 12.0); 22.9% in the assay on Primary AML cells (Patient 3 primary AML cells, control 8.0); 27.9% with Primary AML cells (Patient 4 primary AML cells, control 10.0); 57.8% in the assay on Primary AML cells (Patient 5 primary AML cells, control 6.0); 7.9% in the assay on Primary AML cells (Patient 6 primary AML cells, control 7.0). In addition, in the assay on Primary AML cells (six samples, relapsed AML, Apo-2L/TRAIL 100 ng/mL, LAQ824 100 nM), the “apoptosis of primary AML blasts (in words)” value is given as “induces more apoptosis”. Besides, the “increase of DR5 promoter associated with acetylated histones H3 and H4” value in assay [1] (first of 'respectively' (100 nM / H3)) was determined as 3.3 fold; in assay [1] (second of 'respectively' (200 nM / H4)), 5.7 fold.
